Reference: the NIST ThermoML archive (doi:10.1016/j.jct.2014.03.006)
± gives the expanded uncertainty stated by the source.

Test: Boiling temperature at pressure P
Settings: Liquid, Ebulliometric method (Recirculating still)

Row | SMILES | Boiling temperature at pressure P (24.5 kPa) | Boiling temperature at pressure P (34 kPa) | Boiling temperature at pressure P (43.5 kPa) | Boiling temperature at pressure P (53 kPa) | Boiling temperature at pressure P (62.5 kPa) | Boiling temperature at pressure P (72 kPa) | Boiling temperature at pressure P (81.5 kPa) | Boiling temperature at pressure P (91 kPa) | Boiling temperature at pressure P (101.3 kPa) | Boiling temperature at pressure P (110 kPa) | Boiling temperature at pressure P (119.5 kPa) | Boiling temperature at pressure P (129 kPa) | Boiling temperature at pressure P (138.5 kPa) | Boiling temperature at pressure P (148 kPa) | Boiling temperature at pressure P (157.5 kPa) | Boiling temperature at pressure P (167 kPa) | Boiling temperature at pressure P (176.5 kPa) | Boiling temperature at pressure P (186 kPa) | Boiling temperature at pressure P (190 kPa)
1 | CCC/C=C/C=O [(E)-2-hexenal] | 100.4 ± 0.3 °C | 110 ± 0.3 °C | 117.2 ± 0.3 °C | 123.8 ± 0.3 °C | 129.5 ± 0.3 °C | 134.6 ± 0.3 °C | 139 ± 0.3 °C | 143.0 ± 0.4 °C | 147.6 ± 0.4 °C | 150.7 ± 0.4 °C | 154.0 ± 0.4 °C | 157.2 ± 0.4 °C | 160.0 ± 0.4 °C | 162.8 ± 0.4 °C | 165.2 ± 0.4 °C | 168 ± 0.4 °C | 170.2 ± 0.4 °C | 172.2 ± 0.4 °C | 173.1 ± 0.4 °C
2 | CCOC(=O)C(C)CC (configuration not stated) [ethyl 2-methylbutanoate] | 89.0 ± 0.2 °C | 98.1 ± 0.3 °C | 105.2 ± 0.3 °C | 111.1 ± 0.3 °C | 116.4 ± 0.3 °C | 121 ± 0.3 °C | 124.8 ± 0.3 °C | 128.7 ± 0.3 °C | 132.5 ± 0.3 °C | 135.6 ± 0.3 °C | 138.6 ± 0.3 °C | 141.4 ± 0.3 °C | 144.2 ± 0.3 °C | 147.0 ± 0.3 °C | 149.4 ± 0.3 °C | 151.7 ± 0.3 °C | 154 ± 0.3 °C | 156.0 ± 0.3 °C | 156.8 ± 0.3 °C
3 | CCCCCC=O [hexanal] | 85.0 ± 0.3 °C | 94.2 ± 0.3 °C | 101.1 ± 0.3 °C | 107 ± 0.3 °C | 112.2 ± 0.3 °C | 116.8 ± 0.3 °C | 121 ± 0.3 °C | 124.7 ± 0.3 °C | 128.8 ± 0.3 °C | 131.8 ± 0.3 °C | 134.8 ± 0.3 °C | 137.5 ± 0.3 °C | 140.2 ± 0.3 °C | 143 ± 0.3 °C | 145.5 ± 0.3 °C | 147.7 ± 0.3 °C | 149.7 ± 0.3 °C | 151.8 ± 0.3 °C | 152.7 ± 0.3 °C
